Data on two compounds can be found in US11708562B2, “Differentiation of human embryonic stem cells” (Janssen Biotech, Inc., priority 2006, dated 2023).

“And” between values parts separate entries of the source, which are not always exact repeats. Equal values may be shown once.

Test [1] has as its system H9P49 embryonic stem cells. Description: Pancreatic endoderm under feeder-free conditions: evaluation of retinoic acid analogues (PCR). In kind it is cell-based, human. To be noted: 10 μM AM-580.
Description: At day 5, cells were collected for evaluation by FACS and real-time PCR. […] The resulting definitive endoderm cells at day 5 were exposed to the following media conditions to induce pancreatic endoderm formation: culturing in DMEM/F12 media supplemented with 2% FBS and 1 μM all-trans retinoic acid (RA) (Catalog # R2625, Sigma, MO), or 0.1-10 μM AM-580 (4-[(5,6,7,8-Tetrahydro-5,5,8,8-tetramethyl-2-naphthalenyl)carboxamido]benzoic acid, Catalog # A8843, Sigma, MO), or 0.1-1 μM TTNPB (4-[(E)-2-(5,6,7,8-Tetrahydro-5,5,8,8-tetramethyl-2-naphthalenyl)-1-propenyl]benzoic acid Arotinoid acid, Catalog # T3757, Sigma, MO) for 3 days. AM-580 and TITNPB are retinoic acid analogs with affinity for retinoic acid receptors. RA treatment was followed by additional three day treatment in DMEM/F12 media supplemented with 2% FBS and 20-50 ng/ml bFGF (Catalog # F0291, Sigma, MO). Cultures were harvested and samples of mRNA were collected for analysis.
The subject of the next test is SA002 P38 cells. Description: Differentiation of SA002 ES line on […] to definitive endoderm. Format: cell-based, human. Particulars: 20 ng/ml Wnt-3a. The source says: Expression of CXCR4 is depicted in FIGS. 45A, 45B and 45C: a) AA treatment b) AA+Wnt-3a c) AA+GSK-3B inhibitor.
Test [2] relates to H9P53 embryonic stem cells. Description: Definitive endoderm on […]: combination of Wnt-3a, GSK-3B inhibitor, BMP-4. Format: cell-based, human. Particulars: Wnt-3A plus GSK inhibitor in the presence of activin A. The text has this:
Results are expressed as fold increase over untreated cells. […] Results are expressed as fold increase over untreated cells.

In another test the test system is H9 embryonic stem cells. The test is described as follows: Immunofluorescence staining of DE markers +/- Wnt-3a. Format: cell-based, human. The text has this: Day 5 DE cultures of H9 cells were stained according to Example 10 for SOX-17, HNF-3B, GATA-4, N-cadherin, and E-cadherin. All nuclei were counter stained with DAPI.
Test [3] concerns human embryonic stem cell line H1 at passage 55. The test is described as follows: Definitive endoderm on human serum coated plates (real-time PCR). In kind it is cell-based. Here is the method: Cultures of the human embryonic stem cell line H1 at passage 55 were grown and differentiated on human serum (Sigma, # H1388, MO) coated plates. 0.5 ml of human serum was added to each well of 6 well tissue culture treated dish, incubated for 1 hr at room temperature, and aspirated before adding human embryonic stem cells. […] These findings parallel our findings for human embryonic stem cells cultured on […]™ or human fibronectin coated plates.
In general terms: In qPCR the cycle at which signal appears reflects the starting amount.

A further test relates to H9 cultures. The test is described as follows: Definitive endoderm on varying concentrations of […] with Wnt-3a (real-time PCR). To be noted: low serum, 100 ng/ml activin A and 20 ng/ml Wnt-3a. In kind it is cell-based, human. Here is the method: H9 cells were cultured on plates coated with regular […] at a 1:60 to 1:10 dilution. The plates were coated with […] for 1 hr at room temperature.

The test system of test [4] is H9P46-P48 embryonic stem cells. The test is described as follows: Definitive endoderm on […]: effect of GSK-3B inhibitor (FACS CXCR4, PCR). In kind it is cell-based, human. Particulars: 20 ng/ml of Wnt-3a or 100-1000 nM GSK-3B inhibitor. Here is the method: In order to confirm that the effect of Wnt-3a was through the Wnt pathway, a GSK-3 inhibitor was used to activate the downstream targets of Wnt, such as beta catenin. […] FIG. 29A depicts the expression of CXCR4 by FACS at day 5 in the absence of Wnt-3a or GSK-3B inhibitor, b)+20 ng/ml Wnt-3a, c)+1000 nM GSK-3B inhibitor IX, d)+500 nM GSK-3B inhibitor IX, e)+100 nM GSK-3B inhibitor IX, f)+10 nM GSK-3B inhibitor IX, g)+100 nM GSK-3B inhibitor IX for days 1-2, and h)+10 nM GSK-3B inhibitor IX for days 1-2.

Test [5] has as its system human embryonic stem cell line H9. The test is described as follows: Cells from […] differentiated on MEFs: role of Wnt-3a (real-time PCR, FACS). In kind it is cell-based. Here is the method: Cells from the human embryonic stem cell line H9 cultured on […]™ for at least five passages were seeded onto MEF feeders in ES media.
At day 3 and 5, the cultures were analyzed by real time PCR for SOX-17, SOX-7, Alpha-fetal protein (AFP), CXCR4, Brychyury (Bry), gooscecoid (GSC), HNF-3 beta, GATA4, hTERT and Oct4. AFP and SOX-7 are regarded as visceral endoderm markers while GATA4, HNF-3beta and SOX-17 represent definite endoderm markers and GSC, Bry, and CXCR4 represent markers of primitive streak. hTERT and Oct-4 are markers for self renewal and pluripotency respectively. FACS analysis was also performed at day 3 and 5.

The test system of test [6] is H9P46 embryonic stem cells. Description: Definitive endoderm on […]: effective dose of Wnt-3a (FACS, PCR, cell number). In kind it is cell-based, human. As for the experimental part: Control cultures were not treated with Wnt-3a. FIG. 27A depicts the expression of CXCR4 by FACS at day 5 in the absence of Wnt-3a, b) 10 ng/ml Wnt-3a, c) 20 ng/ml Wnt-3a and d) 50 ng/ml Wnt-3a. In the absence of Wnt-3a the expression of CXCR4 was very low. […] Real-time PCR results (FIG. 28A) also confirm this finding.
In a separate study, H9p52 cells were plated on 1:30 low growth factor […]™. For the first 2 days of the DE protocol a range of Wnt3A doses was used: 10 ng/ml, 5 ng/ml and 1 ng/ml. […] The number of cells at the end of the experiment is noted in FIG. 28C.

Test [7] deals with H7P44 and H9P46 embryonic stem cells. Description: Definitive endoderm on […]: role of Wnt ligands (FACS CXCR4, real-time PCR). In kind it is cell-based, human. Particulars: H7 and H9; low serum+AA+/-Wnt ligands. As for the experimental part: In some of the cultures 20 ng/ml Wnt-3a (Catalog #1324-WN-002, R&D Systems, MN), 20 ng/ml Wnt-5a (Catalog #654-WN-010, R&D Systems, MN), 25 ng/ml Wnt-7a (Catalog #3008-WN-025, R&D Systems, MN), or 25 ng/ml Wnt-5b (Catalog #3006-WN-025, R&D Systems, MN) was added throughout the five day treatment. FIGS. 24A and 24B depicts phase contrast images of H9P46 definitive endoderm culture in the presence of high concentration of (a) AA or (b) AA+20 ng/ml Wnt-3a. FIGS. 25A, 25B, 25C and 25D depicts the expression of CXCR4 by FACS at day 5 for H7P44, and H9P46 lines cultured on […]™ (1:30 dilution) and exposed to the DE protocol+Wnt-3a (FIGS. 25B and 25D) and -Wnt-3a (FIGS. 25A and C).

Test [8] relates to human embryonic stem cell line H9. The test is described as follows: Cytokine array of cell lysates and conditioned media +/- Wnt3a (Table VII). To be noted: 100 ng/ml Activin A + 10 ng/ml Wnt3a. Also on record: unit not given here. Format: cell-based. Here is the method: The effect that Wnt-3a treatment has on cytokine expression was analyzed using a protein array. Cells of the human embryonic stem cell line H9 were cultured according to the methods described in Example 15. […] Cell lysates were prepared from cells of each treatment group, with a mammalian cell lysis kit (Sigma-Aldrich, MO). Conditioned media from each treatment group was collected and concentrated. Cytokine array analysis was completed using Cytokine Array panels provided by RayBiotech, GA (http://www.raybiotech.com/). Table VII lists cytokine, growth factor, and receptor expression following normalization of the data and background subtraction. For each panel, positive and negative controls are also included.

A further test has as its system H9P44 cells. Description: Definitive endoderm on MEFs with growth factor combinations: RT-PCR of definitive endoderm markers (Table V). In kind it is cell-based, human. To be noted: H9P44 on MEF. As for the experimental part: H9P44 cells were plated onto 6 well plates previously coated with mitomycin treated mouse embryonic fibroblasts (MEF). Cells were grown until 70 to 80% confluency in ES cell medium consisting of DMEM/F12 (Invitrogen/GIBCO) supplemented with 20% knockout serum replacement, 100 nM MEM nonessential amino acids, 0.5 mM beta-mercaptoethanol, 2 mM L-glutamine (all from Invitrogen/GIBCO) and 8 ng/ml human basic fibroblast growth factor (bFGF) (R&D Systems).
Growth factors were added to increasing concentration of FBS in a stepwise manner as indicated in the following regimen:
All growth factors were purchased from R&D Systems, MN. A detailed description and concentration of growth factors for each treatment group is shown below. • 1. Control—No growth factor added • 2. […] IL-4 (10 ng/ml) • 10. SDF1a (20 ng/ml) • 11. […] BMP2 (100 ng/ml)+BMP-4 (100 ng/ml)+BMP-6 (100 ng/ml)+BMP-7 (100 ng/ml) • 13.
For RT-PCR analysis, cells were analyzed for expression of selected panel of definitive endoderm markers.

As to `CC1(C)CCC(C)(C)c2cc(C(=O)Nc3ccc(C(=O)O)cc3)ccc21` [AM-580, 4-[(5,6,7,8-Tetrahydro-5,5,8,8-tetramethyl-2-naphthalenyl)carboxamido]benzoic acid], the “expression of PDX-1” value in test [1] is recorded as “maintaining a high expression”.

Turning to Wnt-3a, in the test with SA002 P38 cells, the “expression of DE markers” value was “required addition of Wnt-3A for robust expression of DE markers”. Moreover, the “definitive endoderm markers, combination versus each agent by itself” value in test [2] is “do not lead to significant upregulation”. Besides, the “nuclei stained positive for SOX-17, HNF-3beta and GATA-4” value in the test on H9 embryonic stem cells (20 ng/ml Wnt-3a, day 5) was “significantly larger number”. Moreover, the expression of e-cadherin entry in the test on H9 embryonic stem cells (addition of Wnt-3a) is reported as “significant loss of expression”. In addition, the “expression of definitive endoderm markers compared to activin A only” value in test [3] is “Robust expression”. Also, in the test on H9 cultures, the “expression of CXCR4, GATA4, Goosecoid, HNF-3beta, and SOX-17 genes” value is on record as “led to the expression”. Moreover, the “number of CXCR4 positive cells (FACS)” value in test [4] was “significantly increased”. For the same compound, the “role in differentiation of cells cultured on MEFs to definitive endoderm” value in test [5] is recorded as “does not appear to play a significant role”. Moreover, the “number of CXCR4 positive cells (FACS)” value in test [6] (10-50 ng/ml of Wnt-3a, day 5) is “significantly increased”. In [6] (H9p52, for 2 days), the “Wnt3a dose sufficient for optimal cell expansion and definitive endoderm differentiation” value is 10 ng/mL. For the same compound, the “expression of CXCR4 (FACS)” value in test [6] (absence versus 10 and 50 ng/ml Wnt-3a: 10 ng/ml compared with 50 ng/ml) is on record as “as effective as”. In addition, in test [7], the “expression of definitive endoderm markers (real-time PCR)” value is reported as “significant upregulation”. In test [8] (cell conditioned media), the Axl expression was 610.40 and 748.34; the IL-1beta expression is 316.59 and 278.30; the IL-1ra expression is 354.23 and 581.75. In test [8] (cell lysate), the Axl expression was 88.59 and 139.03; the IL-1beta expression is 352.05 and 312.08; the IL-1ra expression is 302.68 and 198.48. Besides, in the test on H9P44 cells, the “definitive endoderm markers on addition to high dose activin A in low serum” value was “no significant upregulation”.
